In ChEMBL document CHEMBL4334553, “Discovery of Hydroxyamidine Based Inhibitors of IDO1 for Cancer Immunotherapy with Reduced Potential for Glucuronidation” (ACS Med Chem Lett, 2020):

How the values were obtained:
[1] = molecular target: Cytochrome P450 2D6 (Homo sapiens, UniProt P10635); experiment: Inhibition of CYP2D6 (unknown origin); assay type: ADME
[2] = molecular target: T1, Indoleamine 2,3-dioxygenase 1 (Homo sapiens, UniProt P14902); experiment: Inhibition of human N-terminal GST-tagged IDO1 expressed in Escherichia coli Rosetta(DE3) pLysS using L-tryptophan as substrate measured after 1 hr by fluorescence assay
[3] = molecular target: T2, UGT1A9 (Homo sapiens, UniProt O60656); experiment: Stability assessed as recombinant UGT1A9 (unknown origin) mediated compound glucuronidation by measuring half-life at 1 uM incubated in water bath by shaking at 37 degree C measured upto 60 mins in presence of UDPGA by LC-MS/MS analysis; assay type: ADME
T2 sequence (O60656 whole entry): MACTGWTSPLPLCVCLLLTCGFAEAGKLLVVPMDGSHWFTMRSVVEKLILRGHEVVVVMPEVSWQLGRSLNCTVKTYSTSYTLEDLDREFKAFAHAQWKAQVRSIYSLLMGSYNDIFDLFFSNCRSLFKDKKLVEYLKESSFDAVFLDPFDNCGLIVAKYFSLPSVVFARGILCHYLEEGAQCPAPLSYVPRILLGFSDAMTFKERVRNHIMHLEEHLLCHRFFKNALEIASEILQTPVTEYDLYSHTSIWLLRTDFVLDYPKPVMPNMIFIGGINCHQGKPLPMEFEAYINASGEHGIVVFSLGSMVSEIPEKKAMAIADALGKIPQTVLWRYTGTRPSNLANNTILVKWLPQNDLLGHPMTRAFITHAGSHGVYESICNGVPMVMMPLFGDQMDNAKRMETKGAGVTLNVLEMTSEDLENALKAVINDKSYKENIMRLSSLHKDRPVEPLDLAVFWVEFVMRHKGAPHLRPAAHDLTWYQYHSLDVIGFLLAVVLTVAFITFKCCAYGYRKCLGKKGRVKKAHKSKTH

[4] = Half life in mouse liver microsomes; assay type: ADME, Microsome
[5] = Half life in human liver microsomes; assay type: ADME, Microsome
[6] = Half life in mouse at 10 mg/kg, po by capillary micro-sampling analysis; assay type: ADME, organism-based; conditions: in vivo
[7] = molecular target: Cytochrome P450 2C9 (Homo sapiens, UniProt P11712); experiment: Inhibition of CYP2C9 (unknown origin); assay type: ADME
[8] = molecular target: Cytochrome P450 2C19 (Homo sapiens, UniProt P33261); experiment: Inhibition of CYP2C19 (unknown origin); assay type: ADME
[9] = molecular target: T1, Indoleamine 2,3-dioxygenase 1; experiment: Inhibition IDO1 in LPS/IFN-gamma stimulated human whole blood assessed as reduction in tryptophan/kynurenine level preincubated for 15 mins followed by LPS/IFN-gamma stimulation measured after 20 hrs by LC-MS/MS analysis; assay type: tissue-based
[10] = molecular target: Tryptophan 2,3-dioxygenase (Homo sapiens, UniProt P48775); experiment: Inhibition of TDO in human HEK cells; assay type: cell-based
[11] = molecular target: T1, Indoleamine 2,3-dioxygenase 1; experiment: Inhibition of IDO1 in interferon-gamma-induced human SKOV3 cells assessed as N-formylkynurenine formation using L-tryptophan as substrate measured after 24 hrs by fluorescence assay
[12] = AUC (0 to 24 hrs) in mouse at 10 mg/kg, po by capillary micro-sampling analysis; assay type: ADME, organism-based; design: dose 10 mg/kg, time < 24 hr, route oral; conditions: in vivo
[13] = molecular target: Cytochrome P450 3A4 (Homo sapiens, UniProt P08684); experiment: Inhibition of CYP3A4 (unknown origin); assay type: ADME
[14] = Cmax in mouse at 10 mg/kg, po by capillary micro-sampling analysis; assay type: ADME, organism-based; design: dose 10 mg/kg, route oral; conditions: in vivo
[15] = AUC(0 to 12 hrs) at steady state in human assessed as ratio of glucuronide to compound at 50 mg, bid measured after 10 days; assay type: ADME; conditions: in vivo

T1 sequence (P14902 whole entry): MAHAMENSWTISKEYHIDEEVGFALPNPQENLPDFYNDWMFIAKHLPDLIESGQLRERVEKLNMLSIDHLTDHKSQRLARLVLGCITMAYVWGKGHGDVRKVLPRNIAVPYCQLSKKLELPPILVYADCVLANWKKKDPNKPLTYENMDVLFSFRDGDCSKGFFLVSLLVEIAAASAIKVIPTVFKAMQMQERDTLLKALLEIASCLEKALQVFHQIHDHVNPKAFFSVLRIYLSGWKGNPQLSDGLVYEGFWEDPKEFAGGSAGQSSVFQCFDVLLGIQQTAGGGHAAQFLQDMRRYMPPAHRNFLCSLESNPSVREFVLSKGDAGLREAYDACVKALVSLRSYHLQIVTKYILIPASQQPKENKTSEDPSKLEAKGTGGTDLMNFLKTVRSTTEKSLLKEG
Sequence of Cytochrome P450 2D6 (P10635 whole entry): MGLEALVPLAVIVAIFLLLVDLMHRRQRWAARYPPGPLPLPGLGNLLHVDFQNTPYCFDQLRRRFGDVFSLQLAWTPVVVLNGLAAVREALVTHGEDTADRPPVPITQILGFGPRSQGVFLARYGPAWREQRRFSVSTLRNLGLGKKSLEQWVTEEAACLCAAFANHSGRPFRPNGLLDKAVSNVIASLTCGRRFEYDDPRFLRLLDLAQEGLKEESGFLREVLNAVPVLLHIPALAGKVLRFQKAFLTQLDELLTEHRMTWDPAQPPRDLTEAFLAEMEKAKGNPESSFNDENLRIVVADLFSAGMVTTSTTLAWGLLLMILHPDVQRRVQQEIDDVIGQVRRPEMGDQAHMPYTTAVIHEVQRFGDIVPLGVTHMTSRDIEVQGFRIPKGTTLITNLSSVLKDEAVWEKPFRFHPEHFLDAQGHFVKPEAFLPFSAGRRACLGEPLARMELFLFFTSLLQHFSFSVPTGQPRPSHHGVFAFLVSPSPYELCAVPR
Sequence of Cytochrome P450 2C9 (P11712 whole entry): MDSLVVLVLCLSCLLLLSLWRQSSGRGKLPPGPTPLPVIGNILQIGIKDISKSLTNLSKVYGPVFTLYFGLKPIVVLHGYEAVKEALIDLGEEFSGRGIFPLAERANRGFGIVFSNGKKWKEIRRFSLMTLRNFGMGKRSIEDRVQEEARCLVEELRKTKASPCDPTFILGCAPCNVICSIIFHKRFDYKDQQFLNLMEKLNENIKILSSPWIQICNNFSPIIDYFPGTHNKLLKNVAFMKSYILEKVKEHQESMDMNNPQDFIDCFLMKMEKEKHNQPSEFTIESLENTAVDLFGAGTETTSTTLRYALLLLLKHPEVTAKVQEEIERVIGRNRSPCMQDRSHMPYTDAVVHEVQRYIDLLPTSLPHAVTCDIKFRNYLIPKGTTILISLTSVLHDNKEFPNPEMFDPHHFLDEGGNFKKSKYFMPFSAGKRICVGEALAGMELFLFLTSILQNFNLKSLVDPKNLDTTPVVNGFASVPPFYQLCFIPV
Sequence of Cytochrome P450 3A4 (P08684 whole entry): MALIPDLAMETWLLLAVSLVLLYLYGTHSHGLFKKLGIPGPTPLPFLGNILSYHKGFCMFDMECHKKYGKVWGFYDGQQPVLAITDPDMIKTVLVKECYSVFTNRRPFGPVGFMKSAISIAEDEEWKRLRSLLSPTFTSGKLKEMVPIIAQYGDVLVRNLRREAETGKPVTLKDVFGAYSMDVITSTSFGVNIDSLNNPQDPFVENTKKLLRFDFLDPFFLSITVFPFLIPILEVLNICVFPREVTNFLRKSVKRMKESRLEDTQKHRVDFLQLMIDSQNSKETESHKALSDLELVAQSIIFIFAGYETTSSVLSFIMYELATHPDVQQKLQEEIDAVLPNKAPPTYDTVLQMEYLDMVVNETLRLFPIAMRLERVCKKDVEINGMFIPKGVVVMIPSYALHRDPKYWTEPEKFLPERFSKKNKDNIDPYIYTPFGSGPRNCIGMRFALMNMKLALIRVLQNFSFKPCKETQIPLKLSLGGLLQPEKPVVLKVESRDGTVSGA
Sequence of Cytochrome P450 2C19 (P33261 whole entry): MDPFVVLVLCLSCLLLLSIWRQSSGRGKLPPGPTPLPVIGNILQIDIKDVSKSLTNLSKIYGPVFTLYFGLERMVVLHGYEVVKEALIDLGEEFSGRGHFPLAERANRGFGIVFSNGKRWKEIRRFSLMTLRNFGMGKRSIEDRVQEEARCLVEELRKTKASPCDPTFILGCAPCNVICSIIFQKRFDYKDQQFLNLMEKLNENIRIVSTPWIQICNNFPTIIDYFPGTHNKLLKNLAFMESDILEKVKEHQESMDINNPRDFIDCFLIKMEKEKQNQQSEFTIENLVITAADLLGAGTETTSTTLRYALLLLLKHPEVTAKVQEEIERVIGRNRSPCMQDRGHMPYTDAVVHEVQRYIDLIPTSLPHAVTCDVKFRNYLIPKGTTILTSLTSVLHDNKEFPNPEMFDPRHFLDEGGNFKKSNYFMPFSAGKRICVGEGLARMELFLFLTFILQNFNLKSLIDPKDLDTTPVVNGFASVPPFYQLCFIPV
Sequence of Tryptophan 2,3-dioxygenase (P48775 whole entry): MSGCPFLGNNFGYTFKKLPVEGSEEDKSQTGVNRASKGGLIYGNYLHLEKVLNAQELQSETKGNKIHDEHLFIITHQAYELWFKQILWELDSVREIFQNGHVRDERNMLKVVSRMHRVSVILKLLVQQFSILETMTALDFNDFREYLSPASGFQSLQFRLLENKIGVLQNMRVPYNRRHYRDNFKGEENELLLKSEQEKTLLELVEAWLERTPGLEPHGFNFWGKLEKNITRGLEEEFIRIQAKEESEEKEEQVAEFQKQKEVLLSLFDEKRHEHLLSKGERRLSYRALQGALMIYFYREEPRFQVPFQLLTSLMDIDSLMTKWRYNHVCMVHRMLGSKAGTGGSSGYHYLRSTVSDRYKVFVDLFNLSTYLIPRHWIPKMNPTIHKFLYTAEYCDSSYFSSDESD

| Compound | IC50 [2] | half-life at 1 µM [3] | half-life [4] | half-life [5] | IC50 [11] | other results |
| --- | --- | --- | --- | --- | --- | --- |
| NS(=O)(=O)NCC(=O)NCCSc1nonc1/C(=N/O)Nc1ccc(F)c(C(F)F)c1 | 93 nM | > 3 h | 2.75 h | > 3 h | 21 nM | IC50 [1]: > 10000 nM; half-life [6]: 3.6 h; IC50 [7]: > 10000 nM; IC50 [8]: > 10000 nM; IC50 [9]: 320 nM; IC50 [10]: > 10000 nM; AUC(0-t) at 24 h [12]: 30 µM·h; IC50 [13]: > 10000 nM; Cmax [14]: 3.3 µM |
| NS(=O)(=O)NCCNc1nonc1/C(=N/OC1OC(C(=O)O)C(O)C(O)C1O)Nc1ccc(F)c(Br)c1 (centres undefined) |  |  |  |  |  | Ratio [15]: 8.1 |
| CC1(C(=O)NCCSc2nonc2/C(=N/O)Nc2ccc(F)c(C(F)F)c2)CCN1 (centres undefined) | 360 nM | > 3 h | 0.268 h | 1.97 h | 16 nM |  |
| CSc1nonc1/C(=N/O)Nc1ccc(F)c(Br)c1 | 560 nM |  |  |  | 15 nM |  |
| O=C(NCCSc1nonc1/C(=N/O)Nc1ccc(F)c(C(F)F)c1)C1CS(=O)(=O)C1 | 70 nM | > 3 h | 0.245 h | 1.28 h | 13 nM |  |
| CC(C)(O)CC(=O)NCCSc1nonc1/C(=N/O)Nc1ccc(F)c(C(F)F)c1 | 140 nM | > 3 h | 0.175 h | 0.937 h | 8.4 nM |  |
| NS(=O)(=O)CC(=O)NCCSc1nonc1/C(=N/O)Nc1ccc(F)c(Br)c1 | 71 nM | 0.758 h | 1.12 h | 2.37 h | 12 nM |  |
| CS(=O)(=O)NCCSc1nonc1/C(=N/O)Nc1ccc(F)c(Br)c1 | 270 nM | 0.357 h | 0.29 h | 1.73 h | 9.3 nM |  |
| N#Cc1cc(N/C(=N\O)c2nonc2SCCNC(=O)CS(N)(=O)=O)ccc1F | 150 nM | > 3 h | 2.38 h | > 3 h | 39 nM |  |

Now from value to compound, other results behind:

| IC50 [2] | half-life at 1 µM [3] | half-life [4] | half-life [5] | IC50 [11] | Compound | other results |
| --- | --- | --- | --- | --- | --- | --- |
| 240 nM | > 3 h | > 3 h | > 3 h | 44 nM | N#Cc1cccc(N/C(=N\O)c2nonc2SCCNC(=O)CS(N)(=O)=O)c1 |  |
| 230 nM |  |  |  | 39 nM | COc1nonc1/C(=N/O)Nc1ccc(F)c(Br)c1 |  |
| 110 nM | 1.33 h | 0.537 h | 0.77 h | 12 nM | C[C@H](CSc1nonc1/C(=N/O)Nc1ccc(F)c(Br)c1)NC(=O)CS(N)(=O)=O |  |
| 180 nM | 1.73 h | 0.278 h | 2.77 h | 6.5 nM | N#CCC(=O)NCCSc1nonc1/C(=N/O)Nc1ccc(F)c(C(F)F)c1 |  |
